Test results: ChEMBL document CHEMBL1146428, “Effects of flavonoids isolated from scutellariae radix on fibrinolytic system induced by trypsin in human umbilical vein endothelial cells” (J Nat Prod, 1997)
pIC50: −log10 of the molar value. The source made the active and inactive calls. The calls are words filed in the database; no cut-off is given here.

Key:
Trypsin [1] = target: T1, Trypsin (Homo sapiens, UniProt P07477+P07478+P35030); experiment: Inhibition of trypsin-induced elevation in PAI1 production in HUVEC by ELISA; type: cell-based
Trypsin [2] = target: T1, Trypsin; experiment: Inhibition of trypsin-induced reduction in tPA production in HUVEC by ELISA; type: cell-based
[3] = Inhibition of trypsin by protease assay system

IC50 (Trypsin [1]) [µM] | Activity (Trypsin [2]) | pIC50 [3] | Activity (Trypsin [1]) | Structure (SMILES)
> 1000 | inactive | – | – | COc1c(O[C@@H]2O[C@H](C(=O)O)[C@@H](O)[C@H](O)[C@H]2O)cc(O)c2c(=O)cc(-c3ccccc3)oc12
> 1000 | inactive | – | – | O=C(O)[C@H]1O[C@@H](Oc2cc3oc(-c4ccccc4)cc(=O)c3c(O)c2O)[C@H](O)[C@@H](O)[C@@H]1O [BAICALIN]
61 | inactive | – | – | COc1c(O)cc2oc(-c3ccccc3)cc(=O)c2c1O [OROXYLIN A]

The next lines start with the compound.

Structure (SMILES) | IC50 (Trypsin [1]) [µM] | Activity (Trypsin [2]) | pIC50 [3] | Activity (Trypsin [1])
O=C1C[C@@H](c2c(O)cccc2O)Oc2cc(O)cc(O)c21 | > 1000 | inactive | – | –
COc1c(O)ccc(O)c1-c1cc(=O)c2c(O)cc(O)c(OC)c2o1 | 88 | inactive | – | –
O=c1cc(-c2ccccc2)oc2cc(O)c(O)c(O)c12 [BAICALEIN] | 3.7 | Dose-dependent effect | 6.30 | Dose-dependent effect
COc1cccc(O)c1-c1cc(=O)c2c(O)c(OC)c(OC)c(OC)c2o1 [SKULLCAPFLAVONE II] | 110 | inactive | – | –
COc1c(O)cc(O)c2c(=O)cc(-c3ccccc3)oc12 [WOGONIN] | 105 | inactive | – | –
